The values that follow are results of earlier work, collected in patent US10610489B2, “Pharmaceutical composition, pharmaceutical dosage form, process for their preparation, methods for treating and uses thereof” (Boehringer Ingelheim International GmbH, priority 2009, dated 2020).

The series concerns HbA1c. To be noted: metformin on its own, in the diabetic.

With `CN(C)C(=N)N=C(N)N` [metformin, dimethyldiguanide], the “average improvement in the HbA1c value” is recorded as 1.0-1.5%.
